Assay results published in US11014911B2, “CDK2 inhibitors” (Pfizer Inc., priority 2019, dated 2021).

Assays:
GSK3β (H350L) = GSK3β (H350L) (Homo sapiens (Human), UniProt P49841); conditions: read-out: GSK3β Ki
Procedure: The assay was initiated with the addition of ATP, following 15 minutes pre-incubation of enzyme and inhibitor at room temperature in the reaction mixture. The reaction was stopped after 30 minutes at room temperature by the addition of 50 μL of 80 mM EDTA.

[1] = target: CDK2/Cyclin E1 full length (Homo sapiens (Human), UniProt P24941); assay: CDK2/Cyclin E1 full length mobility shift assay; format: biochemical

GSK3β (H350L), sequence (P49841 whole entry, stated change not applied): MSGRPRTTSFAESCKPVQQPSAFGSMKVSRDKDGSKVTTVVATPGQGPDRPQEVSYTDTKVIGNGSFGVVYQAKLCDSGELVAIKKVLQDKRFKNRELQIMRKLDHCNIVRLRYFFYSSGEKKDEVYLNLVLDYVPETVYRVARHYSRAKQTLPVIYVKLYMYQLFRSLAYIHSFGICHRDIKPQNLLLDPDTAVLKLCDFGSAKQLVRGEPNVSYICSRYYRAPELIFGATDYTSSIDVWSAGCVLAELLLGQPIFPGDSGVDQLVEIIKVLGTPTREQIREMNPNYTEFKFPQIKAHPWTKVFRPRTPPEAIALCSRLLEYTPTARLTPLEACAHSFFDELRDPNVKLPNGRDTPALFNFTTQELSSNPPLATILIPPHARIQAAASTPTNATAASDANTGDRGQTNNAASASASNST

Structure (SMILES) | Ki (GSK3β (H350L)) [nM] | Ki [1] [nM]
CCCNC(=O)O[C@@H]1CC[C@H](c2cc(NC(=O)Cc3ccccc3S(=O)(=O)CC)n[nH]2)C1 [Example 205, (1R,3S)-3-[3-({[2-(ethylsulfonyl)phenyl]-acetyl}amino)-1H-pyrazol-5-yl]cyclopentyl propylcarbamate] | 97.7 | 0.76
CC[C@H](C)NC(=O)O[C@@H]1CC[C@H](c2cc(NC(=O)Cc3cnccn3)n[nH]2)C1 [Example 325, (1R,3S)-3-{3-[(pyrazin-2-ylacetyl)amino]-1H-pyrazol-5-yl}cyclopentyl (2S)-butan-2-ylcarbamate] | 54 | 0.81
CC[C@H](C)NC(=O)O[C@@H]1CC[C@H](c2cc(NC(=O)Cc3ccccc3S(=O)(=O)NC)n[nH]2)C1 [Example 374, (1R,3S)-3-[3-({[2-(methylsulfamoyl)phenyl]acetyl}amino)-1H-pyrazol-5-yl]cyclopentyl (2S)-butan-2-ylcarbamate] | 10.8 | 0.32
CC[C@H](C)NC(=O)O[C@@H]1CC[C@H](c2cc(NC(=O)Cc3cc(C)ncc3S(C)(=O)=O)n[nH]2)C1 [Example 373, (1R,3S)-3-[3-({[2-methyl-5-(methylsulfonyl)pyridin-4-yl]acetyl}amino)-1H-pyrazol-5-yl]cyclopentyl (2S)-butan-2-ylcarbamate] | 74.3 | 0.47
CC[C@H](C)NC(=O)O[C@@H]1CC[C@H](c2cc(NC(=O)Cc3ccccc3S(C)(=O)=O)n[nH]2)C1 [Example 370, (1R,3S)-3-[3-({[2-(methylsulfonyl)phenyl]acetyl}amino)-1H-pyrazol-5-yl]cyclopentyl (2S)-butan-2-ylcarbamate] | 50.8 | 
CCCNC(=O)O[C@@H]1CC[C@H](c2cc(NC(=O)Cc3ccnc(OC)c3)[nH]n2)C1 [Example 1, (1R,3S)-3-(3-{[(2-methoxypyridin-4-yl)acetyl]amino}-1H-pyrazol-5-yl)cyclopentyl propylcarbamate] | 26.2 | 
CCCNC(=O)O[C@H]1CC[C@@H](c2cc(NC(=O)Cc3ccnc(OC)c3)n[nH]2)C1 [Example 19] | 20.8 | 
COc1ccc(CC(=O)Nc2cc([C@@H]3CC[C@H](OC(=O)N4CCC4(C)C)C3)[nH]n2)cn1 [Example 145] | 0.95 | 
COc1cnc(CC(=O)Nc2cc([C@H]3CC[C@@H](OC(=O)NCCC(F)(F)F)C3)[nH]n2)cn1 [Example 222, (1R,3S)-3-(3-{[(5-methoxypyrazin-2-yl)acetyl]amino}-1H-pyrazol-5-yl)cyclopentyl (3,3,3-trifluoropropyl)carbamate] |  | 2.93
CC(C)NC(=O)O[C@@H]1CC[C@H](c2cc(NC(=O)Cc3ccc(C(F)(F)F)cn3)n[nH]2)C1 [Example 286, (1R,3S)-3-[3-({[5-(trifluoromethyl)pyridin-2-yl]acetyl}amino)-1H-pyrazol-5-yl]cyclopentyl propan-2-ylcarbamate] |  | 4.14
CC(CC(F)(F)F)NC(=O)O[C@@H]1CC[C@H](c2cc(NC(=O)Cc3cnn(C(C)C)c3)n[nH]2)C1 (single isomer, unassigned) [Example 407] |  | 1.16
Cc1cnc(CC(=O)Nc2cc([C@H]3CC[C@@H](OC(=O)NC4(C)CCOCC4)C3)[nH]n2)o1 [Example 508, (1R,3S)-3-(3-{[(5-methyl-1,3-oxazol-2-yl)acetyl]amino}-1H-pyrazol-5-yl)cyclopentyl (4-methyltetrahydro-2H-pyran-4-yl)carbamate] |  | 1.46
O=C(Cc1ccon1)Nc1cc([C@H]2CC[C@@H](OC(=O)NC3(CC(F)(F)F)CC3)C2)[nH]n1 [Example 451, (1R,3S)-3-{3-[(1,2-oxazol-3-ylacetyl)amino]-1H-pyrazol-5-yl}cyclopentyl [1-(2,2,2-trifluoroethyl)cyclopropyl] carbamate] |  | 0.46
CC[C@H](C)NC(=O)O[C@@H]1CC[C@H](c2cc(NC(=O)Cc3cn4ccc(C)nc4n3)n[nH]2)C1 [Example 357, (1R,3S)-3-(3-{[(7-methylimidazo[1,2-a]pyrimidin-2-yl)acetyl]amino}-1H-pyrazol-5-yl)cyclopentyl (2S)-butan-2-ylcarbamate] |  | 4.08
Cc1cnc(CC(=O)Nc2cc([C@H]3CC[C@@H](OC(=O)N[C@@H](C)C4CC4)C3)[nH]n2)cn1 [Example 470, (1R,3S)-3-(3-{[(5-methylpyrazin-2-yl)acetyl]amino}-1H-pyrazol-5-yl)cyclopentyl [(1S)-1-cyclopropylethyl]carbamate] |  | 0.83
CC1(NC(=O)O[C@@H]2CC[C@H](c3cc(NC(=O)CC4COc5ccccc54)n[nH]3)C2)CCOC1 (single isomer, unassigned) [Example 490] |  | 3.68
CC1(NC(=O)O[C@@H]2CC[C@H](c3cc(NC(=O)Cc4ccno4)n[nH]3)C2)CCOC1 (single isomer, unassigned) [Example 474] |  | 0.44
Cc1cc(CC(=O)Nc2cc([C@H]3CC[C@@H](OC(=O)N[C@H](C)C4CC4)C3)[nH]n2)on1 [Example 469, (1R,3S)-3-(3-{[(3-methyl-1,2-oxazol-5-yl)acetyl]amino}-1H-pyrazol-5-yl)cyclopentyl [(1R)-1-cyclopropylethyl]carbamate] |  | 0.31

Now from value to compound:

Ki (GSK3β (H350L)) [nM] | Ki [1] [nM] | Structure (SMILES)
8.48 | 0.21 | Cc1ncc(CC(=O)Nc2cc([C@H]3CC[C@@H](OC(=O)N4CCC[C@@H]4C)C3)[nH]n2)s1 [Example 139]
4.35 | 1.8 | Cc1ncc(CC(=O)Nc2cc([C@@H]3CC[C@H](OC(=O)N[C@H]4CC[C@](C)(O)CC4)C3)[nH]n2)s1 [Example 563, (1S,3R)-3-(3-{[(2-methyl-1,3-thiazol-5-yl)acetyl]amino}-1H-pyrazol-5-yl)cyclopentyl (trans-4-hydroxy-4-methylcyclohexyl)carbamate]
6.87 | 0.25 | Cc1cnc(CC(=O)Nc2cc([C@H]3CC[C@@H](OC(=O)N4CCC4(C)C)C3)[nH]n2)o1 [Example 147]
26.1 | 0.81 | CCCNC(=O)O[C@@H]1CC[C@H](c2cc(NC(=O)Cc3cnc(OC)s3)n[nH]2)C1 [Example 190, (1R,3S)-3-(3-{[(2-methoxy-1,3-thiazol-5-yl)acetyl]amino}-1H-pyrazol-5-yl)cyclopentyl propylcarbamate]
39.9 | 0.86 | Cc1cnc(CC(=O)Nc2cc([C@@H]3CC[C@H](OC(=O)NC(C)C)C3)[nH]n2)o1 [Example 270, (1S,3R)-3-(3-{[(5-methyl-1,3-oxazol-2-yl)acetyl]amino}-1H-pyrazol-5-yl)cyclopentyl propan-2-ylcarbamate]
47.8 | 0.21 | CC[C@H](C)NC(=O)O[C@@H]1CC[C@H](c2cc(NC(=O)Cc3ccc(OC)cc3S(C)(=O)=O)n[nH]2)C1 [Example 44]
18.6 | 0.41 | C[C@]1(O)CC[C@@H](NC(=O)O[C@H]2CC[C@@H](c3cc(NC(=O)Cc4ccccc4)n[nH]3)C2)CC1 [Example 558, (1S,3R)-3-{3-[(phenylacetyl)amino]-1H-pyrazol-5-yl}cyclopentyl (cis-4-hydroxy-4-methylcyclohexyl)carbamate]
16.1 | 0.73 | CCN(C)C(=O)O[C@@H]1CC[C@H](c2cc(NC(=O)Cc3ccc(OC)cc3)n[nH]2)C1 [Example 240, (1R,3S)-3-(3-{[(4-methoxyphenyl)acetyl]amino}-1H-pyrazol-5-yl)cyclopentyl ethyl(methyl)carbamate]
11.8 |  | C[C@H]1CCCN1C(=O)O[C@@H]1CC[C@H](c2cc(NC(=O)Cc3ccn(C)n3)n[nH]2)C1 [Example 631, (1R,3S)-3-(3-{[(1-methyl-1H-pyrazol-3-yl)acetyl]amino}-1H-pyrazol-5-yl)cyclopentyl (2S)-2-methylpyrrolidine-1-carboxylate]
15.3 |  | C[C@H]1CCCN1C(=O)O[C@@H]1CC[C@H](c2cc(NC(=O)Cc3ccn(C)n3)n[nH]2)C1 [Example 140]
 | 2.27 | COc1cnc(CC(=O)Nc2cc([C@H]3CC[C@@H](OC(=O)N4CC[C@@H]4C)C3)[nH]n2)cn1 [Example 592, (1R,3S)-3-(3-{[(5-methoxypyrazin-2-yl)acetyl]amino}-1H-pyrazol-5-yl)cyclopentyl (2S)-2-methylazetidine-1-carboxylate]
 | 2.21 | COc1cc(CC(=O)Nc2cc([C@H]3CC[C@@H](OC(=O)N4C[C@@H](C#N)[C@@H]4C)C3)[nH]n2)ccn1 (single isomer, unassigned) [Example 156]
 | 1.41 | Cc1nc(CC(=O)Nc2cc([C@H]3CC[C@@H](OC(=O)NC(C)(C)C)C3)[nH]n2)cs1 [Example 304, (1R,3S)-3-(3-{[(2-methyl-1,3-thiazol-4-yl)acetyl]amino}-1H-pyrazol-5-yl)cyclopentyl tert-butylcarbamate]
 | 3.33 | CCCNC(=O)O[C@H]1CC[C@@H](c2cc(NC(=O)Cc3cn4ccccc4n3)n[nH]2)C1 [Example 191, (1S,3R)-3-{3-[(imidazo[1,2-a]pyridin-2-ylacetyl)amino]-1H-pyrazol-5-yl}cyclopentyl propylcarbamate]
 | 1.06 | CC(CC(F)(F)F)NC(=O)O[C@@H]1CC[C@H](c2cc(NC(=O)Cc3ccno3)n[nH]2)C1 (single isomer, unassigned) [Example 85]
 | 0.33 | Cc1cnc(CC(=O)Nc2cc([C@H]3CC[C@@H](OC(=O)NC(C)(C)C)C3)[nH]n2)s1 [Example 303, (1R,3S)-3-(3-{[(5-methyl-1,3-thiazol-2-yl)acetyl]amino}-1H-pyrazol-5-yl)cyclopentyl tert-butylcarbamate]
 | 3.16 | CCN(C)C(=O)O[C@@H]1CC[C@H](c2cc(NC(=O)Cc3ccno3)n[nH]2)C1 [Example 236, (1R,3S)-3-{3-[(1,2-oxazol-5-ylacetyl)amino]-1H-pyrazol-5-yl}cyclopentyl ethyl(methyl)carbamate]
 | 1.77 | COc1cc(CC(=O)Nc2cc([C@H]3CC[C@@H](OC(=O)N4CCC4C)C3)[nH]n2)ccn1 (single isomer, unassigned) [Example 154]
 | 1.74 | Cc1ncc(CC(=O)Nc2cc([C@H]3CC[C@@H](OC(=O)N[C@@H]4CCC[C@@H]4C)C3)[nH]n2)o1 [Example 462, (1R,3S)-3-(3-{[(2-methyl-1,3-oxazol-5-yl)acetyl]amino}-1H-pyrazol-5-yl)cyclopentyl [(1R,2S)-2-methylcyclopentyl]carbamate]
